Reference: patent US20240307414A1, “METHODS AND MATERIALS FOR TREATING PROSTATE CANCER” (Mayo Foundation for Medical Education and Research, priority 2020, published 2024)
“Also recorded” adds a separate entry of the source. Read-outs that look alike come from different tables or passages of the source.

Key:
[1] = tested on: 11 genes (CCNA2, CCNB1, CCNB2, PRC1, SMC2, DLGAP5, ECT2, FBXO5, CDK1, NCAPG, KIF4A); test: qRT-PCR of the 11 genes in cell lines and PDX organoids after drug treatment; type: cell-based, human; details: for expression of the 11 genes (qRT-PCR): 22Rv1 and LNCaP parental/AbiRes cells, organoids MC-PRX-01 and MC-PRX-05, alone or with Abi
Description: Total RNA for qRT-PCR was extracted from tumor organoids or cell lines using Quick-RNA MiniPrep Kit (Zymo Research, Irvine, CA) according to the manufacturer's instructions. qRT-PCR was performed using the Power SYBR® Green RNA-to-CT 1-Step Kit (Life Technologies, Grand Island, NY) and QuantiTect® (QIAGEN, Germantown, MD) or PrimeTime® (IDT, Inc., Coralville, Iowa) pre-designed qPCR primers (IDT Coralville, IA). Gene expression analyses were performed using ΔΔCt method, and β-actin was used as the internal reference. Three independent experiments were performed. Primer sequences are in Table 1.

[2] = tested on: LNCaP parental and LNCaP-AbiRes cells; test: Cytotoxicity and proliferation assay (Cyquant direct assay), LNCaP parental and AbiRes; type: cell-based, human; details: for IC50: LNCaP, single treatment preliminary experiments, concentration used in combination with Abi (FIG. 6B), except PD-0325901, read-out: Concentrations corresponding to IC50 of each drug
Description: (§1) 22Rv1 and LNCaP cells purchased from ATCC were routinely cultured in RPMI1640 medium (Gibco, Grand Island, NY) supplemented with 10% FBS (Atlanta Biologicals, Flowery Branch, GA) and 1% Pen-Strep. […] Abi resistant cells (LNCaP-AbiRes or 22Rv1-AbiRes) were compared with parental cells for viability and gene expression after Abi and other treatments.
(§2) Forty eight hours before abiraterone treatment, cell was seeded in phenol red-free RPMI (Gibco, Grand Island, NY) supplemented with 10% charcoal stripped FBS (Thermo Fisher Scientific, Waltham, MA), and 50 nM pregnenolone was added after 24 hours.

[3] = tested on: 22Rv1 parental and 22Rv1-AbiRes cells; test: Cytotoxicity and proliferation assay (Cyquant direct assay), 22Rv1 parental and AbiRes; type: cell-based, human; details: single treatment preliminary experiments, concentration used in combination with Abi (FIG. 6A), read-out: Concentrations corresponding to IC50 of each drug
Description: as §1, §2

MC-PRX-01 PDX tumor = test: MC-PRX-01 PDX model treated with abiraterone ± palbociclib/PHA-793887, 35 days; type: in vivo, mice
Description: All patient specimens were collected as part of the PROMOTE study as described elsewhere (see, for example, Champoux. Annu. Rev. Biochem., 70, 369-413 (2001); and Kellner et al., Lancet Oncol., 3, 235-243 (2002)). Briefly, pathology confirmed metastatic tumor biopsy tissues of mCRPC was renal capsule xenografted and 25 mg testosterone pellet was subcutaneously implanted into 6-8 weeks old male CB17 NOD-SCID mice (Jackson laboratories, Bar Harbor, Maine; Charles River Laboratories, Raleigh, North Carolina) and observed for at least 6 months or till the tumor reached 1.0-1.5 cm at maximal length, when sub-xenografts were expanded by subcutaneous implantation with harvested PDX tumor mixed with Matrigel (Corning, Corning, New York) with no exogenous testosterone supplied. Early generation PDX tumors were collected for cryo-storage and next-generation sequencing. Pathology confirmed PDX model generated from AA/P non-responder bone metastatic tumor biopsy tissues were employed to test the in vivo tumor response to abiraterone+Mito/Dox/Palb/PHA. After PDX tumor reached approximately 100 mm3, mice were randomized to 6 groups. […] Body weight and tumor volumes (width^2×length/2) were measured two to three times per week with a digital caliper, and the average tumor volumes were determined. At the end of the treatment period, mice were euthanized and the tumors were removed, dissected and frozen at −80° C. for further analysis.

[4] = tested on: metastatic / castration-resistant prostate cancer; details: patients, literature; cited from earlier work
[5] = tested on: PDX organoids MC-PRX-01 and MC-PRX-05; test: PDX derived organoid culture and cytotoxicity assay (3D cell titer)
[6] = tested on: 11 genes in MC-PRX-01 and MC-PRX-06 PDX tumors; test: qRT-PCR of the 11 genes in post treatment PDX tumors; type: in vivo, mice; details: MC-PRX-01 and MC-PRX-06 tumors harvested after treatment

For `O=C(NOC[C@H](O)CO)c1ccc(F)c(F)c1Nc1ccc(I)cc1F` [PD-0325901, mirdametinib], the “expression of the 11 genes (qRT-PCR)” value [1] was “less consistency in the suppression” and the “response of LNCaP cells to the MEK inhibitor” value ([2]; LNCaP harbors a Q56P mutation) was “conferring resistance to this MEK inhibitor”.
In the case of `CC(C)CC(=O)Nc1n[nH]c2c1CN(C(=O)C1CCN(C)CC1)C2(C)C` [PHA-793887], the “expression of the 11 genes (qRT-PCR)” value [1] is reported as “less consistency in the suppression”, the IC50 [2] is reported as 100 nM and the IC50 [3] is reported as 100 nM. The tumor growth (MC-PRX-01 PDX tumor; 35 days) was “inhibited tumor growth”, the “tumor growth inhibition as single treatment” value (MC-PRX-01 PDX tumor; 35 days, tested dosage) was “did not exhibit statistically significant inhibition” and the “sensitization of the tumor to Abi treatment” value (MC-PRX-01 PDX tumor; combination with Abi) was “sensitize the tumor to Abi treatment”.
In the case of `CC(=O)O[C@H]1CC[C@@]2(C)C(=CC[C@@H]3[C@@H]2CC[C@]2(C)C(c4cccnc4)=CC[C@@H]32)C1` [abiraterone acetate], the overall survival [4] is listed as “extend overall survival significantly”.
With `C[C@]12CC[C@H](O)CC1=CC[C@@H]1[C@@H]2CC[C@]2(C)C(c3cccnc3)=CC[C@@H]12` [abiraterone] the “inhibition of organoid growth” value ([5]; abiraterone alone at the highest tested concentration, MC-PRX-01 and MC-PRX-05 organoids) was “less than 10%”.
With `COc1cccc2c1C(=O)c1c(O)c3c(c(O)c1C2=O)C[C@@](O)(C(=O)CO)C[C@@H]3O[C@H]1C[C@H](N)[C@H](O)[C@H](C)O1` [doxorubicin] the “expression of the 11 genes in PDX tumors after treatment (qRT-PCR)” value [6] was “significantly downregulated”.
With `O=C1c2c(O)ccc(O)c2C(=O)c2c(NCCNCCO)ccc(NCCNCCO)c21` [mitoxantrone] the “expression of the 11 genes (qRT-PCR)” value [1] was “most consistently suppressed the expression of the 11 genes; also recorded: more significant effects on the 11 gene suppression”, the “suppression of the 11 genes in LNCaP Abi-resistant cells compared to parental cells” value ([1]; LNCaP AbiRes vs parental) was “better suppression effects” and the IC50 ([2]; Homo sapiens) was 10 nM. For the same compound, the “potency relative to the other identified drugs in cytotoxicity experiments” value ([5]; range of doses tested, FIG. 6) was “superior to others; also recorded: most potent” and the “expression of the 11 genes in PDX tumors after treatment (qRT-PCR)” value [6] was “significantly downregulated”.
